According to patent US9169241B2, “Quinolinyloxyphenylsulfonamides” (Max-Planck-Gesellschaft Zur Forderung der Wissenschaften …, priority 2009, dated 2015):

Tests used:
Type in all cases: cell-based
[1] = tested on: NCI-H1299; assay: Matrigel outgrowth assay/branching assay; conditions: IC100, NCI-H1299; Table Vb
How it was run: (§1)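 Step one: Matrigel (3 mg/ml) is set for 1 h at 37° C. Step two: 5000 cells per well go on in medium with compound (0.78–3.125 μM) or DMSO. Step three: images at 48, 72 and 96 h are scored for complete loss of branching.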

[2] = tested on: PC3; assay: Matrigel outgrowth assay/branching assay; conditions: IC100, PC3; Table Vb
How it was run: as §1

[3] = tested on: SK-MEL28; assay: Matrigel outgrowth assay/branching assay; conditions: IC100, SK-MEL28; Table Vb
How it was run: as §1

[4] = tested on: U138; assay: Matrigel outgrowth assay/branching assay; conditions: IC100, U138; Table Vb
How it was run: as §1

[5] = tested on: U373; assay: Matrigel outgrowth assay/branching assay; conditions: IC100, U373; Table Vb
How it was run: as §1

[6] = tested on: U87MG; assay: Matrigel outgrowth assay/branching assay; conditions: IC100, U87MG; Table Vb
How it was run: as §1

[7] = target: T1, wild type AXL (wtAXL) receptor tyrosine kinase (Homo sapiens, UniProt P30530); assay: NIH-3T3-AXL cellular kinase assay (pY-AXL-ELISA); conditions: NIH-3T3-AXL (clone 22) cells, serum depleted, compounds 1 h; Table Ia
T1 construct: WtAXL cDNA was cloned into vector pLXSN(ESK) and transfected into Phoenix E packaging cells; expressed in transfected cells; host or cells: NIH3T3 N7 (mouse fibroblasts), retrovirally infected, clone 22
T1 sequence (P30530 26-894): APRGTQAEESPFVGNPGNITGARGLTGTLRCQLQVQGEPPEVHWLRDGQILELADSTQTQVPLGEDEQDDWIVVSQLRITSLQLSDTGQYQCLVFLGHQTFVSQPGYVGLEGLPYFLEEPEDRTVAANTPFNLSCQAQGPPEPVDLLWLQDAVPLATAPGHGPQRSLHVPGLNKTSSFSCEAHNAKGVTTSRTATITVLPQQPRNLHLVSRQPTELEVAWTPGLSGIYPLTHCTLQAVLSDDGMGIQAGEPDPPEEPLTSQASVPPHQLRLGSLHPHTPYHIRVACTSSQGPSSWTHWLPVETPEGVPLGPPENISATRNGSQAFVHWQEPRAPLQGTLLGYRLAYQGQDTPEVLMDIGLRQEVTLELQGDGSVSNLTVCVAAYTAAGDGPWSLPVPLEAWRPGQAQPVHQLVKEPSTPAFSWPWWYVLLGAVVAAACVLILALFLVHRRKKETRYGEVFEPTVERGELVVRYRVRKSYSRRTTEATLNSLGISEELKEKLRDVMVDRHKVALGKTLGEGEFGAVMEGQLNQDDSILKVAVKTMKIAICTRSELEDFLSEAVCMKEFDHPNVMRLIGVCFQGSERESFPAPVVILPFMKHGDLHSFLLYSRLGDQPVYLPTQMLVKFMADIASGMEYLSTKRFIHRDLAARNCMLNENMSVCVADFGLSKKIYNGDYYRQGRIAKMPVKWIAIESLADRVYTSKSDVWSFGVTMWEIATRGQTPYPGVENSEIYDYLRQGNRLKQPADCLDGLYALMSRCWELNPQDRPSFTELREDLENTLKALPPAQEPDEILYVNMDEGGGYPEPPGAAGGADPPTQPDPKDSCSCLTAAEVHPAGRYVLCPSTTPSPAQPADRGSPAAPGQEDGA
How it was run: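 NIH3T3 cells stably expressing human wild-type AXL (retroviral, puromycin-selected clones) were treated with serial compound dilutions for 1 h and lysed. AXL tyrosine phosphorylation was measured by ELISA on the lysates: biotinylated 4G10 anti-phosphotyrosine, streptavidin-alkaline phosphatase, AttoPhos fluorescence at 430/560 nm after 90 min.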

## COc1cc2c(Oc3ccc(NS(=O)(=O)c4cc(F)ccc4F)cc3F)ccnc2cc1OCCCN1CCCCC1 [Example 1, 2,5-Difluoro-N-{3-fluoro-4-[6-methoxy-7-(3-piperidin-1-yl-propoxy)-quinolin-4-yloxy]-phenyl}-benzenesulfonamide]
[1]
  Total branching inhibition in Matrigel NCI-H1299: ++ (IC100≦12.5 μM)
[2]
  Total branching inhibition in Matrigel PC3: ++ (IC100≦12.5 μM)
[3]
  Total branching inhibition in Matrigel SK-MEL28: ++ (IC100≦12.5 μM)
[4]
  Total branching inhibition in Matrigel U138: ++ (IC100≦12.5 μM)
[5]
  Total branching inhibition in Matrigel U373: ++ (IC100≦12.5 μM)
[6]
  Total branching inhibition in Matrigel U87MG: + (IC100>12.5 μM)

## COc1cc2c(Oc3ccc(NS(=O)(=O)c4cc(F)ccc4F)cc3F)ccnc2cc1OCCCN1CCN(C)CC1 [Example 12, 2,5-Difluoro-N-(3-fluoro-4-{6-methoxy-7-[3-(4-methyl-piperazin-1-yl)-propoxy]-quinolin-4-yloxy}-phenyl)-benzenesulfonamide]
[7]
  IC50: < 500 nM
[1]
  Total branching inhibition in Matrigel NCI-H1299: ++ (IC100≦12.5 μM)
[2]
  Total branching inhibition in Matrigel PC3: ++ (IC100≦12.5 μM)
[3]
  Total branching inhibition in Matrigel SK-MEL28: ++ (IC100≦12.5 μM)
[4]
  Total branching inhibition in Matrigel U138: ++ (IC100≦12.5 μM)
[5]
  Total branching inhibition in Matrigel U373: ++ (IC100≦12.5 μM)
[6]
  Total branching inhibition in Matrigel U87MG: + (IC100>12.5 μM)

## COc1cc2c(Oc3ccc(NS(=O)(=O)c4cccc(Oc5ccccc5)c4)cc3F)ccnc2cc1OCCCN1CCN(C)CC1 [Example 14, N-(3-Fluoro-4-{6-methoxy-7-[3-(4-methyl-piperazin-1-yl)-propoxy]-quinolin-4-yloxy}-phenyl)-3-phenoxy-benzenesulfonamide]
[4]
  Total branching inhibition in Matrigel U138: ++ (IC100≦12.5 μM)

## COc1cc2c(Oc3ccc(NS(=O)(=O)c4ccccc4C(F)(F)F)cc3F)ccnc2cc1OCCCN1CCN(C)CC1 [Example 24, N-(3-Fluoro-4-{6-methoxy-7-[3-(4-methyl-piperazin-1-yl)-propoxy]-quinolin-4-yloxy}-phenyl)-2-trifluoromethyl-benzenesulfonamide]
[1]
  Total branching inhibition in Matrigel NCI-H1299: ++ (IC100≦12.5 μM)
[2]
  Total branching inhibition in Matrigel PC3: ++ (IC100≦12.5 μM)
[3]
  Total branching inhibition in Matrigel SK-MEL28: ++ (IC100≦12.5 μM)
[4]
  Total branching inhibition in Matrigel U138: ++ (IC100≦12.5 μM)
[5]
  Total branching inhibition in Matrigel U373: ++ (IC100≦12.5 μM)
[6]
  Total branching inhibition in Matrigel U87MG: + (IC100>12.5 μM)

## COC(=O)c1sccc1S(=O)(=O)Nc1ccc(Oc2ccnc3cc(OCCCN4CCCC(C)C4)c(OC)cc23)c(F)c1 (stereo not shown) [Example 66, 3-(3-Fluoro-4-{6-methoxy-7-[3-(3-methyl-piperidin-1-yl)-propoxy]-quinolin-4-yloxy}-phenylsulfamoyl)-thiophene-2-carboxylic acid methyl ester]
[7]
  IC50: < 500 nM
[1]
  Total branching inhibition in Matrigel NCI-H1299: ++ (IC100≦12.5 μM)
[2]
  Total branching inhibition in Matrigel PC3: ++ (IC100≦12.5 μM)
[3]
  Total branching inhibition in Matrigel SK-MEL28: ++ (IC100≦12.5 μM)
[4]
  Total branching inhibition in Matrigel U138: ++ (IC100≦12.5 μM)
[5]
  Total branching inhibition in Matrigel U373: ++ (IC100≦12.5 μM)
[6]
  Total branching inhibition in Matrigel U87MG: ++ (IC100≦12.5 μM)

## COc1cc2c(Oc3ccc(NS(=O)(=O)c4c(F)cccc4F)cc3F)ccnc2cc1OCCCN1CCN(C)CC1 [Example 110, 2,6-Difluoro-N-(3-fluoro-4-{6-methoxy-7-[3-(4-methyl-piperazin-1-yl)-propoxy]-quinolin-4-yloxy}-phenyl)-benzenesulfonamide]
[7]
  IC50: < 500 nM

## COc1cc2c(Oc3ccc(NS(=O)(=O)c4cc(F)ccc4F)cc3Cl)ccnc2cc1OCCCN1CCN(C)CC1 [Example 112, N-(3-Chloro-4-{6-methoxy-7-[3-(4-methyl-piperazin-1-yl)-propoxy]-quinolin-4-yloxy}-phenyl)-2,5-difluoro-benzenesulfonamide]
[7]
  IC50: < 500 nM

## COc1cc2c(Oc3ccc(NS(=O)(=O)c4c(Cl)cccc4Cl)cc3Cl)ccnc2cc1OCCCN1CCN(C)CC1 [Example 119, 2,6-Dichloro-N-(3-chloro-4-{6-methoxy-7-[3-(4-methyl-piperazin-1-yl)-propoxy]-quinolin-4-yloxy}-phenyl)-benzenesulfonamide]
[7]
  IC50: < 500 nM

## COC(=O)c1sccc1S(=O)(=O)Nc1ccc(Oc2ccnc3cc(OCCCN4CCCCC4)c(OC)cc23)c(F)c1 [Example 155, 3-{3-Fluoro-4-[6-methoxy-7-(3-piperidin-1-yl-propoxy)-quinolin-4-yloxy]-phenylsulfamoyl}-thiophene-2-carboxylic acid methyl ester]
[7]
  IC50: < 500 nM

## COC(=O)c1sccc1S(=O)(=O)Nc1ccc(Oc2ccnc3cc(OCCCN4CCC(C)CC4)c(OC)cc23)c(F)c1 [Example 156, 3-(3-Fluoro-4-{6-methoxy-7-[3-(4-methyl-piperidin-1-yl)-propoxy]-quinolin-4-yloxy}-phenylsulfamoyl)-thiophene-2-carboxylic acid methyl ester]
[7]
  IC50: < 500 nM

## COC(=O)c1sccc1S(=O)(=O)Nc1ccc(Oc2ccnc3cc(OCCCN4CCOCC4)c(OC)cc23)c(F)c1 [Example 157, 3-{3-Fluoro-4-[6-methoxy-7-(3-morpholin-4-yl-propoxy)-quinolin-4-yloxy]-phenylsulfamoyl}-thiophene-2-carboxylic acid methyl ester]
[7]
  IC50: < 500 nM

## COC(=O)c1sccc1S(=O)(=O)Nc1ccc(Oc2ccnc3cc(OCCCN4CCN(C)CC4)c(OC)cc23)c(F)c1 [Example 158, 3-(3-Fluoro-4-{6-methoxy-7-[3-(4-methyl-piperazin-1-yl)-propoxy]-quinolin-4-yloxy}-phenylsulfamoyl)-thiophene-2-carboxylic acid methyl ester]
[7]
  IC50: < 500 nM

## COc1cc2c(Oc3ccc(NS(=O)(=O)c4c(F)cccc4F)cc3F)ccnc2cc1OCCCN(C)C [Example 178, N-{4-[7-(3-Dimethylamino-propoxy)-6-methoxy-quinolin-4-yloxy]-3-fluoro-phenyl}-2,6-difluoro-benzenesulfonamide]
[7]
  IC50: < 500 nM

## COc1cc2c(Oc3ccc(NS(=O)(=O)c4ccccc4OC(F)(F)F)cc3F)ccnc2cc1OCCCN(C)C [Example 179, N-{4-[7-(3-Dimethylamino-propoxy)-6-methoxy-quinolin-4-yloxy]-3-fluoro-phenyl}-2-trifluoromethoxy-benzenesulfonamide]
[7]
  IC50: < 500 nM

## COc1cc2c(Oc3ccc(NS(=O)(=O)c4c(Cl)cccc4Cl)cc3F)ccnc2cc1OCCCN(C)C [Example 181, 2,6-Dichloro-N-{4-[7-(3-dimethylamino-propoxy)-6-methoxy-quinolin-4-yloxy]-3-fluoro-phenyl}-benzenesulfonamide]
[7]
  IC50: < 500 nM

## COC(=O)c1sccc1S(=O)(=O)Nc1ccc(Oc2ccnc3cc(OCCCN(C)C)c(OC)cc23)c(F)c1 [Example 184, 3-{4-[7-(3-Dimethylamino-propoxy)-6-methoxy-quinolin-4-yloxy]-3-fluoro-phenylsulfamoyl}-thiophene-2-carboxylic acid methyl ester]
[7]
  IC50: < 500 nM

## COc1cc2c(Oc3c(Cl)cc(NS(=O)(=O)c4c(F)cccc4F)cc3Cl)ccnc2cc1OCCCN1CCC(C)CC1 [Example 209, N-(3,5-Dichloro-4-{6-methoxy-7-[3-(4-methyl-piperidin-1-yl)-propoxy]-quinolin-4-yloxy}-phenyl)-2,6-difluoro-benzenesulfonamide]
[7]
  IC50: < 500 nM

## COc1cc2c(Oc3c(Cl)cc(NS(=O)(=O)c4ccccc4C(F)(F)F)cc3Cl)ccnc2cc1OCCCN1CCC(C)CC1 [Example 210, N-(3,5-Dichloro-4-{6-methoxy-7-[3-(4-methyl-piperidin-1-yl)-propoxy]-quinolin-4-yloxy}-phenyl)-2-trifluoromethyl-benzenesulfonamide]
[7]
  IC50: < 500 nM
